Assay results: patent US20130231458A1, “POLYPEPTIDE FOR PREVENTING AND TREATING CELL HYPERPLASIA” (priority 2011, published 2013)

Assays:
[1] = Weights, motility and side effects of nude mice in the xenograft experiment; format: in vivo, nude mice (NU/NU)
Description: (§1) The polypeptide of the present invention is preventively injected into the rear parts of the necks of four nude mice (nude mice—NU/NU) for a week (5 times per week at a dose of 50 mg/Kg). Next, 1×10^6 lung cancer cells are injected into the hypodermic tissue of the right side of the abdomen of each nude mouse on Day 1. The abovementioned four nude mice function as the medicine test group. Next, the polypeptide is delivered to each nude mouse of the medicine test group at a dose of 50 mg/Kg 5 times per week from Day 1 to Day 43. Meanwhile, the weight and cancer size of each nude mouse of the medicine test group is recorded. The negative control group also has four nude mice. Normal saline having a pH of 7.2-7.4 is subcutaneously injected into the four nude mice of the negative control group for a week (5 times per week). Next, 1×10^6 lung cancer cells are injected into the hypodermic tissue of the right side of the abdomen of each nude mouse of the negative control group on Day 1. Next, normal saline is delivered to each nude mouse of the negative control group 5 times per week from Day 1 to Day 43. Meanwhile, the weight and cancer size of each nude mouse of the negative control group is recorded. The positive control group also has four nude mice. 1×10^6 lung cancer cells are injected into the hypodermic tissue of the right side of the abdomen of each nude mouse of the positive control group on Day 1. Next, a small-molecule anti-cancer drug Doxorubicin is intravenously injected into a region near the abdomen of each nude mouse of the positive control group once per week at a dose of 5 mg/Kg from Day 1 to Day 43 (refer to F Pastorino et. al., Clin. Cancer Res. 14(22): 7320-7329, 2008). Meanwhile, the weight and cancer size of each nude mouse of the positive control group is recorded. Different from the abovementioned two groups, medicine is not applied to the positive control group before Day 1. The medicine test group, negative control group and positive group are observed until Day 43. The mice of the three groups are dissected for examining and recording the weight of the tumor tissue on Day 43.

lung cancer cells = test: Xenograft model of lung cancer in nude mice, tumor volume; format: in vivo, nude mice (NU/NU)
Description: as §1, with “The negative control group also has four nude mice.” left out, “The positive control group also has four nude mice.” left out, “The medicine test group, negative control group and positive group are observed until Day 43.” left out

erythrocytes = conditions: very low concentration (lower than 5 μM); cited from earlier work

SMILES: COc1cccc2c1C(=O)c1c(O)c3c(c(O)c1C2=O)C[C@@](O)(C(=O)CO)C[C@@H]3O[C@H]1C[C@H](N)[C@H](O)[C@H](C)O1 [Dox, Doxorubicin]
- Weights of Nude Mice ([1]; D1, polypeptide 50 mg/Kg s.c. 5 times per week (plus one week before D1), Dox 5 mg/Kg i.v. once per week): 25.6 gram
- Weights of Nude Mice ([1]; D5, same dosing): 26.5 gram
- Weights of Nude Mice ([1]; D8, same dosing): 27.8 gram
- Weights of Nude Mice ([1]; D12, same dosing): 28.2 gram
- Weights of Nude Mice ([1]; D15, same dosing): 28.8 gram
- Weights of Nude Mice ([1]; D19, same dosing): 30.4 gram
- Weights of Nude Mice ([1]; D22, same dosing): 30.0 gram
- Weights of Nude Mice ([1]; D26, same dosing): 30.4 gram
- Weights of Nude Mice ([1]; D29, same dosing): 30.0 gram
- Weights of Nude Mice ([1]; D33, same dosing): 31.5 gram
- Weights of Nude Mice ([1]; D36, same dosing): 32.1 gram
- Weights of Nude Mice ([1]; D40, same dosing): 32.5 gram
- Weights of Nude Mice ([1]; D43, same dosing): 32.8 gram
- weights and motilities during the experiment ([1]; Day 1 to Day 43): do not vary significantly
- Tumor Volumes of Nude Mice (lung cancer cells; D22, polypeptide 50 mg/Kg s.c. 5 times per week (plus one week before D1), Dox 5 mg/Kg i.v. once per week): 57.8 mm^3
- Tumor Volumes of Nude Mice (lung cancer cells; D29, same dosing): 373.8 mm^3
- Tumor Volumes of Nude Mice (lung cancer cells; D33, same dosing): 553.5 mm^3
- Tumor Volumes of Nude Mice (lung cancer cells; D36, same dosing): 632.6 mm^3
- Tumor Volumes of Nude Mice (lung cancer cells; D40, same dosing): 884.5 mm^3
- Tumor Volumes of Nude Mice (lung cancer cells; D43, same dosing): 1308.9 mm^3
- ratio of the average tumor volumes of treated group and negative control group (saline) (lung cancer cells; at best, Day 40): 52.0%
- ratio of the average tumor volumes of treated group and negative control group (saline) (lung cancer cells; end of the experiment (Day 43)): 83.05%

SMILES: CC[C@H](C)[C@H](NC(=O)CN)C(=O)NCC(=O)N[C@@H](C)C(=O)N[C@H](C(=O)N[C@@H](CC(C)C)C(=O)N[C@@H](CCCCN)C(=O)N[C@H](C(=O)N[C@@H](CC(C)C)C(=O)N[C@H](C(=O)N[C@H](C(=O)NCC(=O)N[C@@H](CC(C)C)C(=O)N1CCC[C@H]1C(=O)N[C@@H](C)C(=O)N[C@@H](CC(C)C)C(=O)N[C@H](C(=O)N[C@@H](CO)C(=O)N[C@@H](Cc1c[nH]c2ccccc12)C(=O)N[C@H](C(=O)N[C@@H](CCCCN)C(=O)N[C@@H](CCCNC(=N)N)C(=O)N[C@@H](CCCCN)C(=O)N[C@@H](CCCNC(=N)N)C(=O)N[C@@H](CCC(N)=O)C(=O)N[C@@H](CCC(N)=O)C(N)=O)[C@@H](C)CC)[C@@H](C)CC)[C@@H](C)O)[C@@H](C)O)C(C)C)C(C)C [melittin]
- erythrocytes damaged (erythrocytes): about 90%
